Molecular target: T1, human V1a receptor (Homo sapiens, UniProt P37288)
T1 construct: expressed in transfected cells; host or cells: HEK293 cells, transiently transfected; cell membranes
Assay: human V1a receptor binding (3H-Vasopressin SPA, HEK293 membranes)
Details: displacement of 4 nM 3H-Vasopressin, membranes of HEK293 cells transiently transfected with human V1a receptor; Ki from IC50 by Cheng-Prussoff
Experimental: The human V1a receptor was cloned by RT-PCR from total human liver RNA. The coding sequence was subcloned in an expression vector after sequencing to confirm the identity of the amplified sequence. […] Cell membranes were prepared from HEK293 cells transiently transfected with the expression vector and grown in 20 liter fermenters with the following protocol.
50 g cells are resuspended in 30 ml freshly prepared ice cold Lysis buffer (50 mM HEPES, 1 mM EDTA, 10 mM MgCl2 adjusted to pH=7.4+complete cocktail of protease inhibitor (Roche Diagnostics)). The cells are homogenized with Polytron for 1 min and sonicated on ice for 2×2 minutes at 80% intensity (Vibracell sonicator). The preparation is centrifuged 20 min at 500 g at 4° C., the pellet is discarded and the supernatant centrifuged 1 hour at 43,000 g at 4° C. (19,000 rpm). The pellet is resuspended in 12.5 ml Lysis buffer+12.5 ml Sucrose 20% and homogenized using a Polytron for 1-2 min. The protein concentration is determined by the Bradford method and aliquots are stored at −80° C. until use. For binding studies 60 mg Yttrium silicate SPA beads (Amersham) are mixed with an aliquot of membrane in binding buffer (50 mM Tris, 120 mM NaCl, 5 mM KCl, 2 mM CaCl2, 10 mM MgCl2) for 15 minutes with mixing. 50 ul of bead/membrane mixture is then added to each well of a 96 well plate, followed by 50 ul of 4 nM 3H-Vasopressin (American Radiolabeled Chemicals). For total binding measurement 100 ul of binding buffer are added to the respective wells, for non-specific binding 100 ul of […] cold vasopressin and for compound testing 100 ul of a serial dilution of each compound in 2% DMSO. The plate is incubated 1 h at room temperature, centrifuged 1 min at 1000 g and counted on a Packard Top-Count. Non-specific binding counts are subtracted from each well and data is normalized to the maximum specific binding set at 100%. To calculate an IC 50 the curve is fitted using a non-linear regression model (XLfit), and the Ki is calculated using the Cheng-Prussoff equation.

T1 sequence (P37288 whole entry): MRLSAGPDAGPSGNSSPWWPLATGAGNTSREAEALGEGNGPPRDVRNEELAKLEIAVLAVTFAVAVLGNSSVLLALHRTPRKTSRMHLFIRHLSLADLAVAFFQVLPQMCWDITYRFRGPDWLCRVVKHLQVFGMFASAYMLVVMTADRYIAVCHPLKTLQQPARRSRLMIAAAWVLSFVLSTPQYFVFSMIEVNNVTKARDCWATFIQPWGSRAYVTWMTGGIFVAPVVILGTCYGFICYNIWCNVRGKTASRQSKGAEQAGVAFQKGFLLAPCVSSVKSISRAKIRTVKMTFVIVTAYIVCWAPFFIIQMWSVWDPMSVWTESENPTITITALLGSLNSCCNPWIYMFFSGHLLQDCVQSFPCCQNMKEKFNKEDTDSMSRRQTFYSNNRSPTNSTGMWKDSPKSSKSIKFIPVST

| SMILES | Ki [nM] |
| --- | --- |
| Cc1c(C(=O)N2CCC3(CC2)OCc2ccc(Cl)cc23)c2ccccc2n1Cc1ccccc1 [Example 40, 1′-[(1-benzyl-2-methyl-1H-indol-3-yl)carbonyl]-6-chloro-3H-spiro[2-benzofuran-1,4′-piperidine]] | 2.9 |
| Cc1[nH]c2ccccc2c1C(=O)N1CCC2(CC1)OCc1ccccc12 [Example 43, 1′-[(2-methyl-1H-indol-3-yl)carbonyl]-3H-spiro[2-benzofuran-1,4′-piperidine]] | 11 |
| Cc1c(C(=O)N2CCC3(CC2)OCc2ccccc23)c2ccccc2n1C(=O)c1ccccc1 [Example 44, 1′-[(1-benzoyl-2-methyl-1H-indol-3-yl)carbonyl]-3H-spiro[2-benzofuran-1,4′-piperidine]] | 11 |
| Cc1c(C(=O)N2CCC3(CC2)OCc2ccccc23)c2ccccc2n1S(=O)(=O)c1ccccc1 [Example 45, 1′-{[2-methyl-1-(phenylsulfonyl)-1H-indol-3-yl]carbonyl}-3H-spiro[2-benzofuran-1,4′-piperidine]] | 9.5 |
| Cc1c(C(=O)N2CCC3(CC2)OCc2ccccc23)c2ccccc2n1CC1CCCCC1 [Example 46, 1′-{[1-(cyclohexylmethyl)-2-methyl-1H-indol-3-yl]carbonyl}-3H-spiro[2-benzofuran-1,4′-piperidine]] | 0.8 |
| Cc1c(C(=O)N2CCC3(CC2)OCc2ccccc23)c2ccccc2n1Cc1cccc(F)c1 [Example 47, 1′-{[1-(3-fluorobenzyl)-2-methyl-1H-indol-3-yl]carbonyl}-3H-spiro[2-benzofuran-1,4′-piperidine]] | 0.5 |
| Cc1c(C(=O)N2CCC3(CC2)OCc2ccccc23)c2ccccc2n1Cc1ccccc1OC(F)(F)F [Example 48, 1′-({2-methyl-1-[2-(trifluoromethoxy)benzyl]-1H-indol-3-yl}carbonyl)-3H-spiro[2-benzofuran-1,4′-piperidine]] | 2.6 |
| Cc1cc(C)cc(Cn2c(C)c(C(=O)N3CCC4(CC3)OCc3ccccc34)c3ccccc32)c1 [Example 49, 1′-{[1-(3,5-dimethylbenzyl)-2-methyl-1H-indol-3-yl]carbonyl}-3H-spiro[2-benzofuran-1,4′-piperidine]] | 2.4 |
| COC(=O)c1ccc(Cn2c(C)c(C(=O)N3CCC4(CC3)OCc3ccccc34)c3ccccc32)cc1 [Example 50, methyl 4-{[2-methyl-3-(1′H,3H-spiro[2-benzofuran-1,4′-piperidin]-1′-ylcarbonyl)-1H-indol-1-yl]methyl}benzoate] | 10.6 |
| Cc1c(C(=O)N2CCC3(CC2)OCc2ccccc23)c2ccccc2n1Cc1ccc(C#N)cc1 [Example 51, 4-{[2-methyl-3-(1′H,3H-spiro[2-benzofuran-1,4′-piperidin]-1′-ylcarbonyl)-1H-indol-1-yl]methyl}benzonitrile] | 5.9 |
| Cc1c(C(=O)N2CCC3(CC2)OCc2ccccc23)c2ccccc2n1Cc1cc(F)cc(F)c1 [Example 52] | 2.1 |
| Cc1c(C(=O)N2CCC3(CC2)OCc2ccccc23)c2ccccc2n1Cc1ccccc1Cl [Example 53, 1′-{[1-(2-chlorobenzyl)-2-methyl-1H-indol-3-yl]carbonyl}-3H-spiro[2-benzofuran-1,4′-piperidine]] | 1.7 |
| COc1ccccc1Cn1c(C)c(C(=O)N2CCC3(CC2)OCc2ccccc23)c2ccccc21 [Example 54, 1′-{[1-(2-methoxybenzyl)-2-methyl-1H-indol-3-yl]carbonyl}-3H-spiro[2-benzofuran-1,4′-piperidine]] | 2.5 |
| COc1ccc(Cn2c(C)c(C(=O)N3CCC4(CC3)OCc3ccccc34)c3ccccc32)cc1 [Example 55, 1′-{[1-(4-methoxybenzyl)-2-methyl-1H-indol-3-yl]carbonyl}-3H-spiro[2-benzofuran-1,4′-piperidine]] | 7.9 |
| COc1ccccc1-c1nc(Cn2c(C)c(C(=O)N3CCC4(CC3)OCc3ccccc34)c3ccccc32)c(C)o1 [Example 58, 1′-[(1-{[2-(2-methoxyphenyl)-5-methyl-1,3-oxazol-4-yl]methyl}-2-methyl-1H-indol-3-yl)carbonyl]-3H-spiro[2-benzofuran-1,4′-piperidine]] | 12.3 |
| O=C(c1cn(Cc2ccccc2)c2ccccc12)N1CCC2(CC1)OCc1ccccc12 [Example 68, 1′-[(1-benzyl-1H-indol-3-yl)carbonyl]-3H-spiro[2-benzofuran-1,4′-piperidine]] | 6.9 |
| O=C(c1c[nH]c2cc(Cl)ccc12)N1CCC2(CC1)OCc1ccccc12 [Example 69, 1′-[(6-chloro-1H-indol-3-yl)carbonyl]-3H-spiro[2-benzofuran-1,4′-piperidine]] | 4.3 |

| SMILES | Ki [nM] |
| --- | --- |
| CN(C)CCn1cc(C(=O)N2CCC3(CC2)OCc2ccccc23)c2ccccc21 [Example 71, N,N-dimethyl-2-[3-(1′H,3H-spiro[2-benzofuran-1,4′-piperidin]-1′-ylcarbonyl)-1H-indol-1-yl]ethanamine] | 5.6 |
| CCC(C)C(=O)c1[nH]c2ccccc2c1C(=O)N1CCC2(CC1)OCc1ccccc12 (stereo not drawn) [Example 72, 2-methyl-1-[3-(1′H,3H-spiro[2-benzofuran-1,4′-piperidin]-1′-ylcarbonyl)-1H-indol-2-yl]butan-1-one] | 2.9 |
| N#CCn1cc(C(=O)N2CCC3(CC2)OCc2ccccc23)c2ccc(Cl)cc21 [Example 76, [6-chloro-3-(1′H,3H-spiro[2-benzofuran-1,4′-piperidin]-1′-ylcarbonyl)-1H-indol-1-yl]acetonitrile] | 1.7 |
| O=C(c1c[nH]c2cc(Cl)c(F)cc12)N1CCC2(CC1)COc1ccccc12 [Example 80, 1′-[(6-chloro-5-fluoro-1H-indol-3-yl)carbonyl]spiro[1-benzofuran-3,4′-piperidine]] | 7.4 |
| CN(C)CCn1cc(C(=O)N2CCC3(CC2)COc2ccccc23)c2ccc(Cl)cc21 [Example 81, 2-[6-chloro-3-(1′H-spiro[1-benzofuran-3,4′-piperidin]-1′-ylcarbonyl)-1H-indol-1-yl]-N,N-dimethylethanamine] | 5 |
| O=C(c1cn(CCN2CCCC2)c2cc(Cl)ccc12)N1CCC2(CC1)COc1ccccc12 [Example 82, 1′-{[6-chloro-1-(2-pyrrolidin-1-ylethyl)-1H-indol-3-yl]carbonyl}spiro[1-benzofuran-3,4′-piperidine]] | 12.9 |
| O=C(c1cn(CCN2CCOCC2)c2cc(Cl)ccc12)N1CCC2(CC1)COc1ccccc12 [Example 84, 1′-{[6-chloro-1-(2-morpholin-4-ylethyl)-1H-indol-3-yl]carbonyl}spiro[1-benzofuran-3,4′-piperidine]] | 3.6 |
| CCN(CC)CCn1cc(C(=O)N2CCC3(CC2)COc2ccccc23)c2ccc(Cl)cc21 [Example 85, 2-[6-chloro-3-(1′H-spiro[1-benzofuran-3,4′-piperidin]-1′-ylcarbonyl)-1H-indol-1-yl]-N,N-diethylethanamine] | 10.2 |
| O=C(c1cn(CCn2cccc2)c2cc(Cl)ccc12)N1CCC2(CC1)COc1ccccc12 [Example 86, 1′-({6-chloro-1-[2-(1H-pyrrol-1-yl)ethyl]-1H-indol-3-yl}carbonyl)spiro[1-benzofuran-3,4′-piperidine]] | 13.2 |
| O=C(Cn1cc(C(=O)N2CCC3(CC2)COc2ccccc23)c2ccc(Cl)cc21)N1CCCCC1 [Example 87, 1′-{[6-chloro-1-(2-oxo-2-piperidin-1-ylethyl)-1H-indol-3-yl]carbonyl}spiro[1-benzofuran-3,4′-piperidine]] | 3.5 |
| O=C(c1cn(Cc2cc(F)cc(F)c2)c2cc(Cl)ccc12)N1CCC2(CC1)CNc1ccccc12 [Example 93] | 13.8 |
| O=C(c1cn(Cc2cccc(F)c2)c2cc(Cl)ccc12)N1CCC2(CC1)CNc1ccccc12 [Example 94] | 4.1 |
| CCN(CC)C(=O)Cn1cc(C(=O)N2CCC3(CC2)CNc2ccccc23)c2ccc(Cl)cc21 [Example 99, 2-[6-Chloro-3-(1,2-dihydro-1′H-spiro[indole-3,4′-piperidin]-1′-ylcarbonyl)-1H-indol-1-yl]-N,N-diethylacetamide] | 5.7 |
| CN(C)C(=O)Cn1cc(C(=O)N2CCC3(CC2)CNc2ccccc23)c2ccc(Cl)cc21 [Example 100, 2-[6-Chloro-3-(1,2-dihydro-1′H-spiro[indole-3,4′-piperidin]-1′-ylcarbonyl)-1H-indol-1-yl]-N,N-dimethylacetamide] | 3.4 |
| O=C(Cn1cc(C(=O)N2CCC3(CC2)CNc2ccccc23)c2ccc(Cl)cc21)c1ccccn1 [Example 101, 2-[6-Chloro-3-(1,2-dihydro-1′H-spiro[indole-3,4′-piperidin]-1′-ylcarbonyl)-1H-indol-1-yl]-1-pyridin-2-ylethanone] | 27.9 |
| O=C(c1cn(Cc2cccnc2)c2cc(Cl)ccc12)N1CCC2(CC1)CNc1ccccc12 [Example 102, 1′-{[6-Chloro-1-(pyridin-3-ylmethyl)-1H-indol-3-yl]carbonyl}-1,2-dihydrospiro[indole-3,4′-piperidine]] | 25.1 |
